# Several values for one entry are separate records, joined by “and”; a condition that tells them apart may be missing. Identical values can stand only once. Entries after “also recorded” stand apart in the source; their conditions may differ.
# Columns and labels:
# [1] = system: Grade IV heart failure; assay: Compassionate treatment of patients with Grade IV heart failure awaiting heart transplantation; format: in vivo, human; conditions: for Cardiac output (L/m) / LVEF % / Oxygen consumption / Systolic volume: individual patients
# Excerpt: This is a cohort of 7 patients, who received the compassionate treatment with GHRP-6, under informed consent. All patients were in advanced heart failure, evaluated as functional class grade IV, according to the scale of the New York Heart Association. These patients were hospitalized in specialized cardiology services of two hospitals, and the ischemic heart disease, the idiopathic dilated cardiomyopathy, the heart valve disease, and the postpartum dilated cardiomyopathy were considered as the underlying condition for heart failure. […] They had minimal effort dyspnea, inability to adequately fulfill the 6 minutes' walk test, and instability in fluid balance and renal function, despite the diet control and the treatment with diuretics, the restriction of salt and the monitoring body weight.
# All patients received between 50 and 200 μg of GHRP-6/kg body weight, two or three times a day, according to medical criteria, by intravenous route. All treatments were performed while the patients were awaiting for heart transplantation. The treatment period with GHRP-6 was between 25 days and 30 days per cycle.
# A cycle of treatment with GHRP-6 was performed every three months. The maximum was three cycles. All patients were maintained with previous medical treatments, based on digital, diuretics, renin-angiotensin-aldosterone axis inhibitors (neurohormones) and pressor amines when required.
# [2] = system: AMI with a ST Segment elevation; assay: AMI in pigs, one hour circumflex artery clamping followed by reperfusion; format: in vivo, female pigs of the Yorkshire breed; conditions: for Infarction Area (%): day 10
# Experimental: (§1) The objective of the study was to evaluate, and to compare, the therapeutic impact of the late administration of GHRP-6 on functional parameters of the left ventricle, regarding the effect of the peptide acutely administered. Another objective was to assess the effect of late treatment in a group of animals in which the reperfusion was not performed.
# (§2) The implementation of the AMI was performed in female pigs of the Yorkshire breed, with body weight of 22-27 kg. The anesthesia was induced with propofol, midazolam and pancuronium, by intravenous route. Under general anesthesia, obtained with a mixture of isofluorane/oxygen and nitrous oxide the ischemia was provoked. It was induced by a thoracotomy between the fifth and sixth intercostal spaces, until reaching the left circumflex artery, which was occluded by a 30 mm arterial clamping for one hour. Immediately, the record of the electrocardiogram and the heart rate was taken, every 20 seconds. At the end of 60 minutes of occlusion, the clamping was released, and so began the reperfusion phase, to complete the 10 days after ischemia. For the experimental group without reperfusion, that simulates the state called as non-reflux, a permanent ligation of the circumflex artery, with surgical thread, was performed. Both procedures, clamping and permanent ligation, induce an AMI with a ST Segment elevation. The recording of heart rate and electrocardiogram continued until the superficial suture of the thorax. The animals were sacrificed, by exsanguination, on the tenth day after the ischemia episode was induced. Under an anesthetic overdose, the determination of the area of the AMI was made, by means of the calculation of the area at risk with Evans blue.
# (§3) For the echocardiographic evaluation, the pigs were previously sedated with a mixture of propofol/midazolam. A Kontron ultrasound system, Sigma 1 AC Cardio model, equipped with 3.5-7.5 MHz mechanical-cardiac sector transducers was used.
# (§4) The parameters evaluated were the following: • Left Ventricle Ejection Fraction (LVEF), estimated by the Teich method. • Left Ventricle Tele-Systolic and Tele-diastolic Pressures. • Infarction Area, estimated on the area at risk (%).
# (§5) Seven animals per group were used. In all groups, the animals received treatment every 12 hours, for 10 days after ischemia. The administrations of GHRP-6 or placebo were performed through a central catheter. In the case of the groups that received the peptide, it was diluted in 10 ml of physiological saline. The essence of the study was to evaluate the influence of the time of initiation of treatment on functional parameters and size of the ventricular not viable territory.
# [3] = system: AMI with elevated ST segment; assay: Second cohort: AMI patients with low cardiac output syndrome / cardiogenic shock, late treatment with GHRP-6; format: in vivo, human; conditions: for LVEF: individual patients, late treatment, echocardiography at 90 days
# Experimental: Second cohort. Comprising 13 patients over 30 years old, of both sexes, with a diagnosis of AMI with elevated ST segment, who received percutaneous transluminal angioplasty before 12 hours of implantation of precordial pain. All these patients evolved in an unfavorable way, and with uncertain prognosis between 24 and 96 hours after a successful endoluminal reperfusion, according to the imaging criteria all were considered as TIMI grade 3.
# This led to the decision of establishing an alternative treatment with GHRP-6, to try to reduce dyskinesia of the ventricular musculature, to attenuate the process of presumed stunning, to dampen hypoxia, and to rescue from death a territory of ischemic ventricular mass. The patients who implanted a reinfarction received rescue angioplasty. One of these patients died during the procedure. None of the patients met criteria for the coronary revascularization practice. In these cases, the first administration of the peptide was carried out at least after 48 hours of torpid evolution after a TIMI 3. During the treatment time, the GHRP-6 was administered intravenously, every 12 hours.
# [4] = system: AMI with ST segment elevation; assay: First cohort: patients with AMI with ST segment elevation, GHRP-6 immediately after angioplasty; format: in vivo, human
# Experimental: First cohort. Comprising 19 patients over 30 years old, of both sexes, with a diagnosis of AMI with ST segment elevation, all with occlusion of the anterior descending artery, first episode, who arrived at a cardiology department before 12 hours of implantation of the precordial pain. The average door-ball time was 6 hours. All patients received primary percutaneous transluminal angioplasty, and immediately after the culprit artery flow was restored they received treatment with GHRP-6. In some patients, the treatment was performed by intra-coronary flushing, after the flow was restored. Residual lesions occupied less than 25% of the initial occlusion area, so it was considered as a TIMI 3, according to the Coronary Risk Score known as TIMI. In other cases, the first administration was performed by a central-venous route, just at the time of reperfusion, in the hemodynamic room. GHRP-6 was administered at a dose of 100 μg/kg of body weight, twice a day, for 7 days, time spent in the coronary intensive care hospital room. […]
# [5] = system: AMI with a ST Segment elevation; assay: AMI in pigs without reperfusion (non-reflux), permanent ligation of the circumflex artery; format: in vivo, female pigs of the Yorkshire breed
# Experimental: as §1, §2, §3, §4, §5
# [6] = after treatment, 50-200 μg/kg two or three times a day intravenously
# [7] = Group 2: 400 μg/kg every 12 h for 10 days, onset immediately at the beginning of reperfusion
# [8] = Group 3: 400 μg/kg every 12 h, onset 72 hours after the start of reperfusion
# [9] = Group 4: 400 μg/kg every 12 h, onset 5 days after the start of reperfusion
# [10] = 30 days after PTA, 100 μg/kg twice a day for 7 days
# [11] = 90 days after PTA, 100 μg/kg twice a day for 7 days
# [12] = start of treatment, minutes after the PTA (baseline)
# [13] = Group 5: no reperfusion, 400 μg/kg every 12 h, onset one hour after the artery was permanently clamped
substance,measurement,setting,value
growth hormone releasing peptide-6 [GHRP-6],overall response to treatment,[1]; Grade IV heart failure patients in the transplant pool,"restore cardiac, hemodynamic, ventilatory and clinical constants"
same,Cardiac output (L/m),[1]; [6],4.3 L/m and 3.8 L/m and 2.9 L/m and 3.2 L/m (2×) and 3.08 L/m and 2.89 L/m
same,LVEF %,[1]; [6],28% and 30% and 29% and 23% and 25% and 31% and 26%
same,Oxygen consumption,[1]; [6],7.7 mL/min/kg and 7 mL/min/kg and 6.4 mL/min/kg and 7.2 mL/min/kg and 7.6 mL/min/kg and 6.6 mL/min/kg and 9.5 mL/min/kg
same,Systolic volume,"[1]; after treatment, 50-200 μg/kg two or three times a day intravenously, in mL (unit assumed)",50 and 54 and 60 and 56 and 49 and 47 and 51
same,Cardiac output (L/m),[1]; before treatment,3.2 L/m and 2.7 L/m and 1.89 L/m and 2.17 L/m and 2.41 L/m and 2.1 L/m and 1.98 L/m
same,LVEF %,[1]; before treatment,20% (2×) and 19% and 21% (2×) and 22% and 18%
same,Oxygen consumption,[1]; before treatment,4.12 mL/min/kg and 3.91 mL/min/kg and 3.05 mL/min/kg and 4.1 mL/min/kg and 3.87 mL/min/kg and 4.2 mL/min/kg and 3.63 mL/min/kg
same,Systolic volume,[1]; before treatment,29 (2×) and 30 and 31 and 35 and 25 and 27
same,LV telediastolic pressure (mmHg),[2]; [7],4.6 ± 1.1 mmHg
same,LV telesystolic pressure (mmHg),[2]; [7],80 ± 2.2 mmHg
same,LVEF %,[2]; [7],80 ± 2.5%
same,Infarction Area (%),[2]; [7],31.6 ± 5.2%
same,LV telediastolic pressure (mmHg),[2]; [8],4.4 ± 1.6 mmHg
same,LV telesystolic pressure (mmHg),[2]; [8],81 ± 3.0 mmHg
same,LVEF %,[2]; [8],77 ± 4.1%
same,Infarction Area (%),[2]; [8],35.4 ± 6.4%
same,LV telediastolic pressure (mmHg),[2]; [9],5.2 ± 0.8 mmHg
same,LV telesystolic pressure (mmHg),[2]; [9],77 ± 3.1 mmHg
same,LVEF %,[2]; [9],60 ± 6.6%
same,Infarction Area (%),[2]; [9],37.0 ± 4.3%
same,diastolic pressure compared to the placebo group,"[2]; all groups that received GHRP-6, regardless of when treatment started",significant reduction
same,LVEF rescued,"[2]; medicated from 5 days after the ischemic event, versus placebo",22%
same,decline of LVEF compared to baseline physiological conditions,[2]; start of treatment on the fifth day,21%
same,infarct size effect: treatment in parallel to reperfusion versus started 72 hours later,[2]; statistical comparison of Groups 2 and 3,no significant statistically differences
same,ventricular territory (area at risk) rescued from death,[2]; treatment initiated on the 5th day after ischemia,8%
same,reduction of the size of myocardial infarction in comparison to placebo,[2]; treatment started 72 hours after reperfusion,~13%
same,LVEF %. Mean ± SD,"[3]; Cohort 2, late treatment, 90 days after treatment",50.8 ± 5.34%
same,interval to suspension of vasopressor amines,[3]; after start of peptide treatment,~96 h
same,LVEF,[3]; 100 μg/kg every 12 hours,LVEF of 63%; also recorded: LVEF of 48%; also recorded: LVEF of 50%; also recorded: LVEF of 52%; also recorded: LVEF of 56%; also recorded: LVEF of 45%
same,LVEF,[3]; 200 μg/kg every 12 hours,LVEF of 47%; also recorded: LVEF of 51%; also recorded: LVEF of 46%
same,patients in whom suspension of vasopressor amines was achieved,"[3]; patients evaluated, after start of peptide treatment",8 out of 10
same,surviving patients of the 13 critical patients,[3]; second cohort,12
same,LVEF %,[4]; [10],51 ± 8.6%
same,SPWT (mm),[4]; [10],11.6 ± 0.7 mm
same,SSF %,[4]; [10],35 ± 6.5%
same,SST (mm),[4]; [10],10.3 ± 1.6 mm
same,Telediastolic volumen,[4]; [10],87 ± 11 mL
same,Telesystolic volume,[4]; [10],65 ± 23 mL
same,LVEF %,[4]; [11],57 ± 6.6%
same,SPWT (mm),[4]; [11],11.3 ± 1.8 mm
same,SSF %,[4]; [11],42 ± 9.6%
same,SST (mm),[4]; [11],10.7 ± 1 mm
same,Telediastolic volumen,[4]; [11],111 ± 16 mL
same,Telesystolic volume,[4]; [11],49 ± 8 mL
same,LVEF %. Mean ± SD,"[4]; Cohort 1, acute treatment, 90 days after treatment",57.0 ± 6.61%
same,clinical evolution of the patients,"[4]; first cohort, GHRP-6 after successful angioplasty (TIMI 3)","favorable evolution, without further important complications; also recorded: progressive improvement over time"
same,LVEF %,[4]; [12],38 ± 5.9%
same,SSF %,[4]; [12],27 ± 2.6%
same,Telediastolic volumen,[4]; [12],81 ± 14 mL
same,Telesystolic volume,[4]; [12],77 ± 12 mL
same,SPWT (mm),"[4]; start of treatment, minutes after the PTA (baseline), echocardiography",10.1 ± 2 mm
same,LV telediastolic pressure (mmHg),[5]; [13],5.1 ± 1.9 mmHg
same,LV telesystolic pressure (mmHg),[5]; [13],80 ± 2.6 mmHg
same,LVEF %,[5]; [13],72 ± 5.5%
same,Infarction Area (%),"[5]; Group 5: no reperfusion, 400 μg/kg every 12 h, onset one hour after the artery was permanently clamped, day 10",36.1 ± 2.8%
same,reduction of the area of ventricular death,[5]; no reperfusion,12%
same,LVEF difference with baseline conditions,"[5]; non-reflux group, without reperfusion",9%

# Reference: patent publication US11564975B2, “Use of GHRP-6 as late cardioprotective and cardiac restoration medicament” (Centro de Ingeniería Genética y Biotecnología, priority 2018, dated 2023)
